Reference: patent publication US10513534B2, “2′-chloro nucleoside analogs for HCV infection” (priority 2012, dated 2019)
Where two headings read alike, the source gives them in different places.

Tests used:
HCV genotype 1b replicon = experiment: HCV replicon assay (Zluc luciferase); format: cell-based; settings: Zluc cells, 72 hours, read-out: HCV Replicon EC50
Description: Huh-7-derived cell line (Zluc) that harbors an HCV genotype 1b replicon and a luciferase reporter gene was grown in Dulbecco's Modified Eagle Medium (DMEM) supplemented with 10% fetal bovine serum, 2 mM GlutaMAX, 1% MEM nonessential amino acids, 100 IU/mL penicillin, 100 μg/mL streptomycin, and 0.5 mg/mL Geneticin® (G418). For dose response testing the cells were seeded in 96-well plates at 7.5×10^3 cells per well in a volume of 50 μL, and incubated at 37° C./5% CO2. Drug solutions were made up freshly in Huh-7 media as 2× stocks. Ten additional 5-fold dilutions were prepared from these stocks in DMEM without G418. At least three hours after Zluc cells were seeded, drug treatment was initiated by adding 50 μL of drug dilutions to the plates in duplicate. Final concentrations of drug ranged from 100 μM to […]. Cells were then incubated at 37° C./5% CO2. Alternatively, compounds were tested at two concentrations (1 μM and 10 μM). […] For this, media was removed from the plates via gentle tapping. Fifty microliters of ONE-glo luciferase assay reagent was added to each well. The plates were shaken gently for 3 min at room temperature and luminescence was measured on a Victor^3 V 1420 multilabel counter (Perkin Elmer) with a 1 second read time using a 700 nm cut-off filter. The EC50 values were calculated from dose response curves from the resulting best-fit equations determined by Microsoft Excel and XLfit 4.1 software. When screening at two fixed concentrations, the results were expressed as % inhibition at 1 μM and 10 μM.

in vitro = settings: human
[1] = Plasma nucleoside pharmacokinetics after single oral dose in CD-1 mice; format: in vivo; settings: single oral dose 10 mg/kg in PEG 200;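 as to Ms Plasma nucleoside AUC: pmol·h/mL plasma normalized to a 1 µmol/kg dose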
Description: Plasma samples were analyzed for nucleoside by LC-MS/MS. The internal standard (IS) was either 2′-MeG-D3 or tiapride. For protein precipitation and extraction, each plasma sample (50 μL) was treated with 500 μL of 0.2% formic acid in acetonitrile and 20 μL of the internal standard working solution. After vortexing and centrifugation, 500 μL of the sample extracts were transferred to a new plate, dried under N2 at ˜28° C. and reconstituted with 75 μL of 0.2% FA in water. The extracts were chromatographed on an Aquasil C18 column using a gradient system of 0.2% formic acid in water and acetonitrile. The analytes were detected and quantified by tandem mass spectrometry in positive ion mode on an MDS Sciex API5000 equipped with a Turbo Ionspray® interface. The calibration range was 0.500 (LLOQ) to 200 ng/mL in mouse plasma.

[2] = Liver triphosphate pharmacokinetics after single oral dose in CD-1 mice; format: in vivo; set-up: key: + ≤ 15; 15 < ++ ≤ 50; 50 < +++ ≤ 100; 100 < ++++; BLQ = below limit of quantitation; settings: single oral dose 10 mg/kg in PEG 200;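 as to Ms Liver TP AUC: pmol·h/g liver normalized to a 1 µmol/kg dose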;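 as to Ms Liver TP Cmax: pmol/g liver normalized to a 1 µmol/kg dose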
Description: Internal standard solution was added to the homogenate followed by neutralization with 20% ammonium hydroxide solution and addition of 500 μL 1% formic acid. The tissue samples were extracted by weak anion exchange solid phase extraction (SPE). Post extraction, the eluates were evaporated under nitrogen, followed by reconstitution before injection onto the LC-MS/MS system.

Zluc cells = experiment: Cytotoxicity evaluation, CellTiter-Blue Cell Viability Assay; settings: Zluc cells, CellTiter-Blue

Row | Structure (SMILES) | EC50 (HCV genotype 1b replicon; Hepatitis C virus, 72 h) [µM] | CC50 (in vitro) [µM] | EC50 (HCV genotype 1b replicon) [µM] | Ms Plasma nucleoside AUC [1] | Ms Plasma nucleoside Cmax [1] | Ms Liver TP AUC [2] | Ms Liver TP Cmax [2] | CC50 (Zluc cells) [µM]
1 | CCOC(=O)NCCC(C)(C)C(=O)SCCOP(=O)(NCc1ccccc1)OC[C@H]1O[C@@H](n2ccc(=O)[nH]c2=O)[C@](C)(Cl)[C@@H]1O (mixture of isomers) [Compound 51 Mixture of P-Diastereoisomers] | 0.25 to 1 | > 50 | – | – | – | – | – | –
2 | CC(C)OC(=O)[C@H](C)NP(=O)(OC[C@H]1O[C@@H](n2cnc3c(=O)[nH]c(N)nc32)[C@](C)(Cl)[C@@H]1O)Oc1ccccc1 (single isomer, unassigned) [Compound 21ii Diastereomer 1] | > 10 | > 50 | – | – | – | – | – | –
3 | C[C@H](NP(=O)(OC[C@H]1O[C@@H](n2ccc(=O)[nH]c2=O)[C@](C)(Cl)[C@@H]1O)Oc1ccccc1)C(=O)OCC(C)(C)C (single isomer, unassigned) [Compound 42ii Single Diastereoisomer] | < 0.25 | > 50 | – | – | – | – | – | –
4 | CC(C)OC(=O)C(C)NP(=O)(OCCSC(=O)C(C)(C)C)OC[C@H]1O[C@@H](n2ccc(=O)[nH]c2=O)[C@](C)(Cl)[C@@H]1O (single isomer, unassigned) [Compound 43ii Diastereomer 2] | 0.25 to 1 | > 50 | – | – | – | – | – | –
5 | CC(C)(CO)C(=O)SCCOP1(=O)OC[C@H]2O[C@@H](n3ccc(=O)[nH]c3=O)[C@](C)(Cl)[C@@H]2O1 (single isomer, unassigned) [Compound 46 Single Diastereoisomer] | < 0.25 | > 50 | – | – | – | – | – | –
6 | CC(C)OC(=O)[C@H](C)NP(=O)(OC[C@H]1O[C@@H](n2ccc(N)nc2=O)[C@](C)(Cl)[C@@H]1O)Oc1ccccc1 (single isomer, unassigned) [Compound 56ii Diastereomer 1] | > 10 | > 50 | – | – | – | – | – | –
7 | CC(C)(C)C(=O)SCCOP1(=O)OC[C@H]2O[C@@H](n3ccc(N)nc3=O)[C@](C)(Cl)[C@@H]2O1 (single isomer, unassigned) [Compound 61 Diastereomer 2] | – | – | < 0.25 | + (+ ≤ 150) | + (+ ≤ 15) | +++ (500 < +++ ≤ 1500) | ++++ (100 < ++++) | > 50
8 | CCCCOC(=O)[C@@H](C)NP(=O)(OC[C@H]1O[C@@H](n2ccc(=O)[nH]c2=O)[C@](C)(Cl)[C@@H]1O)Oc1ccccc1 (single isomer, unassigned) [Compound 202i Diastereomer 2] | – | – | 0.25 to 1 | ++++ (1500 < ++++) | ++++ (100 < ++++) | ++++ (1500 < ++++) | ++++ (100 < ++++) | > 50
9 | C[C@@H](NP(=O)(OC[C@H]1O[C@@H](n2ccc(=O)[nH]c2=O)[C@](C)(Cl)[C@@H]1O)Oc1ccccc1)C(=O)OCc1ccccc1 (single isomer, unassigned) [Compound 205i Diastereomer 2] | – | – | 0.25 to 1 | ++++ (1500 < ++++) | +++ (50 < +++ ≤ 100) | ++++ (1500 < ++++) | ++++ (100 < ++++) | > 50
10 | CC(C)OC(=O)[C@H](C)NP(=O)(OC[C@H]1O[C@@H](n2cc(F)c3c(N)ncnc32)[C@](C)(Cl)[C@@H]1O)Oc1ccccc1 (single isomer, unassigned) [Compound 207ii Diastereomer 1] | > 10 | > 50 | – | – | – | – | – | –
11 | CC(C)OC(=O)[C@H](C)NP(=O)(OC[C@H]1O[C@@H](n2ccc3c(N)ncnc32)[C@](C)(Cl)[C@@H]1O)Oc1ccccc1 (single isomer, unassigned) [Compound 208ii Diastereomer 2] | – | – | > 10 | – | – | BLQ | BLQ | > 50
12 | CCCCOC(=O)[C@H](C)NP(=O)(OC[C@H]1O[C@@H](n2ccc(=O)[nH]c2=O)[C@](C)(Cl)[C@@H]1O)Oc1ccccc1 (single isomer, unassigned; diastereomer 1) [Compound 202ii Diastereomer 1] | – | – | < 0.25 | ++++ (1500 < ++++) | ++++ (100 < ++++) | +++ (500 < +++ ≤ 1500) | ++++ (100 < ++++) | > 50
13 | CCOC(=O)[C@H](C)NP(=O)(OC[C@H]1O[C@@H](n2ccc(=O)[nH]c2=O)[C@](C)(Cl)[C@@H]1O)Oc1ccccc1 (single isomer, unassigned; diastereomer 1) [Compound 203ii Diastereomer 1] | – | – | 0.25 to 1 | +++ (500 < +++ ≤ 1500) | +++ (50 < +++ ≤ 100) | +++ (500 < +++ ≤ 1500) | +++ (50 < +++ ≤ 100) | > 50
14 | CCOC(=O)[C@H](CC(C)C)NP(=O)(OC[C@H]1O[C@@H](n2ccc(=O)[nH]c2=O)[C@](C)(Cl)[C@@H]1O)Oc1ccccc1 (single isomer, unassigned; diastereomer 1) [Compound 204ii Diastereomer 1] | – | – | 1 to 10 | +++ (500 < +++ ≤ 1500) | +++ (50 < +++ ≤ 100) | ++ (150 < ++ ≤ 500) | ++ (15 < ++ ≤ 50) | > 50
15 | CCCCOC(=O)[C@H](C)NP(=O)(OC[C@H]1O[C@@H](n2ccc(=O)[nH]c2=O)[C@](C)(Cl)[C@@H]1O)Oc1ccccc1 (single isomer, unassigned; diastereomer 2) [Compound 202ii Diastereomer 2] | – | – | < 0.25 | ++++ (1500 < ++++) | ++++ (100 < ++++) | +++ (500 < +++ ≤ 1500) | +++ (50 < +++ ≤ 100) | > 50
16 | CCOC(=O)[C@H](C)NP(=O)(OC[C@H]1O[C@@H](n2ccc(=O)[nH]c2=O)[C@](C)(Cl)[C@@H]1O)Oc1ccccc1 (single isomer, unassigned; diastereomer 2) [Compound 203ii Diastereomer 2] | – | – | 0.25 to 1 | +++ (500 < +++ ≤ 1500) | +++ (50 < +++ ≤ 100) | ++ (150 < ++ ≤ 500) | ++ (15 < ++ ≤ 50) | > 50
17 | CCOC(=O)[C@H](CC(C)C)NP(=O)(OC[C@H]1O[C@@H](n2ccc(=O)[nH]c2=O)[C@](C)(Cl)[C@@H]1O)Oc1ccccc1 (single isomer, unassigned; diastereomer 2) [Compound 204ii Diastereomer 2] | – | – | 0.25 to 1 | ++++ (1500 < ++++) | ++++ (100 < ++++) | ++ (150 < ++ ≤ 500) | ++ (15 < ++ ≤ 50) | > 50
18 | C[C@@]1(Cl)[C@H](O)[C@@H](CO)O[C@H]1n1cnc2c(N)ncnc21 [Compound 302, 2′-C-Chloro-2′-C-methyladenosine] | > 10 | > 50 | – | – | – | – | – | –
19 | C[C@@]1(Cl)[C@H](O)[C@@H](CO)O[C@H]1n1cc(F)c2c(N)ncnc21 [Compound 303] | > 10 | > 50 | – | – | – | – | – | –
20 | CCOc1nc(N)nc2c1ncn2[C@@H]1O[C@H](CO)[C@@H](O)[C@@]1(C)Cl [Compound 304] | > 10 | > 50 | – | – | – | – | – | –
21 | C[C@@]1(Cl)[C@H](O)[C@@H](CO)O[C@H]1c1ccc2c(N)ncnn12 [Compound 305] | > 10 | > 50 | – | – | – | – | – | –
22 | C[C@@]1(Cl)[C@H](O)[C@@H](CO)O[C@H]1n1ccc(N)nc1=O [Compound 306] | > 10 | > 50 | – | – | – | – | – | –
